Test results reported in patent publication US7531565B2, “Imidazolidin-2-one derivatives as selective androgen receptor modulators (SARMS)” (Janssen Pharmaceutica, N.V., priority 2004, dated 2009).
Where two headings read alike, the source gives them in different places.

Biological target: T1, androgen receptor (Rattus norvegicus, UniProt P15207)
T1 sequence (P15207 1-902): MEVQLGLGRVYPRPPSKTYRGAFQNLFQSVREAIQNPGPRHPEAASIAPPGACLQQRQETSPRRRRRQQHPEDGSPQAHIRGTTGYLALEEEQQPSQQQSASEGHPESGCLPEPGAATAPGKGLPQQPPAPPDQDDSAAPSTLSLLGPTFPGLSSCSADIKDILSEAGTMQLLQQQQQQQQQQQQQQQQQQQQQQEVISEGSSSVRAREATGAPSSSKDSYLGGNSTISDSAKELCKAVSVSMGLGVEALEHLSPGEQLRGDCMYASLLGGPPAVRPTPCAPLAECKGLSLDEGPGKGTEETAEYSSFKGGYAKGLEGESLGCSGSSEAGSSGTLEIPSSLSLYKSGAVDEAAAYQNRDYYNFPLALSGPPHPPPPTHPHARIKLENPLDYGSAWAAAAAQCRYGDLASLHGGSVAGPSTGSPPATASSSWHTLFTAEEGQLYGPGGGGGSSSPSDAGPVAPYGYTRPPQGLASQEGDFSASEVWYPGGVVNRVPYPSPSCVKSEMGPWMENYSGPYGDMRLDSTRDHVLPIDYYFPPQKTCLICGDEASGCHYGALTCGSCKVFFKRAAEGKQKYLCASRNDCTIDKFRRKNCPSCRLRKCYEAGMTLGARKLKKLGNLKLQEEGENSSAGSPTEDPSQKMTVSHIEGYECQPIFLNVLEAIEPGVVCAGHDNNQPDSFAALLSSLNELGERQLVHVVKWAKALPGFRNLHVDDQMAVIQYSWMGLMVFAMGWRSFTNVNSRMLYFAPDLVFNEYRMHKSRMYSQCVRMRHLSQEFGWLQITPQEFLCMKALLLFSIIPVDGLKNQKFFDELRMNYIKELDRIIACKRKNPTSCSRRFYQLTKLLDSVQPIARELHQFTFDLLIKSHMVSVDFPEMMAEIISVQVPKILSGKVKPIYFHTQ
Assay: L929 androgen receptor functional assay, adenovirus transduction
Format: cell-based
Parameters: expressed in transfected cells
Settings: for % Activition @ 3 μM: agonist testing (no R1881), luciferase
Description: L929 cells were plated in 96-well plates at 20,000 cells per well, in DMEM/F12 (GIBCO) containing 10% (v/v) charcoal-treated fetal bovine serum (Hyclone) and lacking phenol red. The plates were then incubated overnight at 37° C. in 5% (v/v) humidified CO2.
Test compound dilutions were prepared in 100% (v/v) DMSO, if necessary. Each dilution was made to 1250× the final desired assay concentration. First, 2 mL of DMEM/F12 lacking phenol red was pipetted into the wells of a 2-mL 96-well assay block. Next, 4 μL of the 1250× test compound dilutions were pipetted into each well of the assay block. The mixtures within the well were then carefully mixed by pipette.
In a 15 mL or 50 mL sterile centrifuge tube, a 2.5 nM (2.5×) dilution of R1881 (methyl-trienolone) in DMEM/F12 lacking phenol red was prepared. In a second 15 mL or 50 mL centrifuge tube a solution containing an equal volume of DMEM to the first and an equal volume of 100% (v/v) DMSO to the volume of R1881 used in the first tube was prepared.
In a 15 mL or 50 mL sterile centrifuge tube, a dilution in DMEM/F12 of the adenovirus AdEasy+rAR at an moi of 1:500 per well was prepared. The medium was removed from the 96-well plates by inversion and dried, inverted, very briefly. As soon as possible after medium removal, 40 μL of the diluted unlabeled test compound was added to each well, in duplicate. To each well designated for antagonist testing was added 40 μL of the 2.5 nM R1881 dilution to the wells for antagonist testing. To each well designated for agonist testing was added 40 μL of the DMSO dilution. Then 20 μL of the diluted adenovirus were added to all wells. The plates were incubated for 48 hours at 37° C. in 5% (v/v) humidified CO2.
To each well was added 100 μL of Steady-Glo luciferase assay substrate (Promega) and the plates were placed on a rotary shaker for 1 min. The plates were then incubated at room temperature in the dark for one hour. The contents of each well were then transferred to a white microtiter plate (Packard) and read on a Luminoskan Ascent (Thermo Lab Systems).
L929 AR percent activity was determined by testing dilutions of the test compound using a concentration of 3000 nM unless otherwise noted. L929 percent inhibition was determined by testing dilutions of the test compound using a concentration of 3000 nM. EC50s and IC50s were determined by testing serial dilutions of the test compound (usually duplicate ten half-log dilutions starting at 10 μM). Luciferase activity per well were measured and EC50s and IC50s determined by linear regression.
Representative compounds of the present invention were tested for functional activity at the androgen receptor according to the procedure described above with results as listed in Table 4.

[1] = 3 μM, L929 cells, antagonist testing with R1881, luciferase

SMILES	% Activition @ 3 μM (3 μM, L929 cells)	% Inhibition @ 3 μM [1]	inhibition at 3 µM (3 μM, L929 cells, antagonist testing with R1881, luciferase, read-out: % Inhibition @ 3 μM)	inhibition at 3 µM (L929, read-out: % Inhibition @ 3 μM)
COC(=O)C1(C)CN(c2ccccc2)C(=O)N1 (racemic) [Compound 4b]	0%	34%		
COC(=O)C1(C)CN(c2ccc(OC)cc2)C(=O)N1 (racemic) [Compound 4c]	2%	5%		
COC(=O)C1(C)CN(c2ccc(Cl)c(C(F)(F)F)c2)C(=O)N1 (racemic) [Compound 4d]	0%	1%		
COC(=O)C1(C)CN(c2ccc(C#N)c(C(F)(F)F)c2)C(=O)N1 (racemic) [Compound 4e]	0%	−15%		
CC1(C(=O)O)CN(c2ccccc2)C(=O)N1 (racemic) [Compound 5b]	0%	32%		
COc1ccc(N2CC(C)(C(=O)O)NC2=O)cc1 (racemic) [Compound 5c]	−5%	−14%		
CC1(C(=O)O)CN(c2ccc(Cl)c(C(F)(F)F)c2)C(=O)N1 (racemic) [Compound 5d]	0%	−30%		
CC1(C(=O)Nc2ccccc2)CN(c2ccccc2)C(=O)N1 (racemic) [Compound 6b]	0%	54%		
COc1ccc(N2CC(C)(C(=O)Nc3ccc(C#N)c(C(F)(F)F)c3)NC2=O)cc1 (racemic) [Compound 6c]	0%	11%		
CC1(C(=O)Nc2ccc(C#N)c(C(F)(F)F)c2)CN(c2ccccc2)C(=O)N1 (racemic) [Compound 6d]	0%	59%		
CC1(C(=O)Nc2ccc([N+](=O)[O-])c(C(F)(F)F)c2)CN(c2ccccc2)C(=O)N1 (racemic) [Compound 6e]	2%	96%		
CC1(C(=O)Nc2cccc(C(F)(F)F)c2)CN(c2ccc(F)cc2)C(=O)N1 (racemic) [Compound 6g]	0%	−12%		
CC1(C(=O)Nc2cc(C(F)(F)F)cc(C(F)(F)F)c2)CN(c2ccc(F)cc2)C(=O)N1 (racemic) [Compound 6h]	0%	21%		
CC1(C(=O)Nc2ccc(C(F)(F)F)nc2)CN(c2ccccc2)C(=O)N1 (racemic) [Compound 6j]	0%	29%		
CC1(C(=O)O)CN(c2ccc(F)cc2)C(=O)N1 (centres unmarked) [Compound 5a, 1-(4-Fluoro-phenyl)-4-methyl-2-oxo-imidazolidine-4-carboxylic acid]	1%		15%	
CC1(C(=O)Nc2ccc(C#N)c(C(F)(F)F)c2)CN(c2ccc(F)cc2)C(=O)N1 (centres unmarked) [Compound 6a, 1-(4-Fluoro-phenyl)-4-methyl-2-oxo-imidazolidine-4-carboxylic acid (4-cyano-3-trifluoromethyl-phenyl)-amide]	9%			37%
